Experiment [1] addresses recombinant human ALDH2 (Homo sapiens (Human), UniProt P05091). Description: ALDH2 assay (NADH formation). The note with it: 60 min pre-incubation, 150 uM formaldehyde, 2.5 mM NAD+; read-out: IC50 HALDH2. Type of experiment: biochemical. The method, then:
Standard ALDH2 reaction mixtures contained 150 uM formaldehyde, 2.5 mM NAD^+, 10 mM MgCl2 and 10 nM recombinant human ALDH2 in 50 mM Hepes buffer, pH 7.4, 0.01% Tween 20 in a final volume of 50 ul using 384-well plates. After 60 min of pre-incubation of compound with ALDH2 and formaldehyde, the reaction was started by adding NAD+ and the reaction mixture was allowed to proceed for 90 minutes. Activity of the enzyme was determined by monitoring NADH formation using Perkin-Elmer Envision Reader with excitation and emission wavelengths set at 340 and 460 nm, respectively.
(§1) Note: […] refers to the concentration of a compound that inhibits a reaction by 50%. In the case of competitive inhibition, IC50=2Ki when the substrate is present at the Km concentration, as per the relationship: Ki=IC50/[1+(substrate concentration/Km)].

The target in experiment [2] is HMAO-B (Homo sapiens (Human), UniProt P27338). Description: MAO-B assay (luminogenic MAO substrate). The conditions noted are these: microsome MAO-B, 16 uM substrate. Type of experiment: biochemical. Here is the method:
(§2) MAO assays included luminogenic MAO substrate, reaction buffers, Luciferin Detection and the reconstitution buffer with eserase. Standard MAO reaction mixtures included microsome contained MAO-A (2 ug) or MAO-B (10 ug), 160 uM substrate for MAO-A or 16 uM substrate for MAO-B, MAO-A buffer (100 mM Hepes buffer, pH 7.5, 5% glycerol) or MAO-B buffer (100 mM Hepes, pH 7.5, 5% glycerol, 10% dimethyl sulfoxide) in a final volume of 30 ul. After 20 minutes of pre-incubation of the enzyme with compounds, the reaction was initiated by adding enzyme substrate and the reaction was allowed to proceed for 60 minutes. Reconstituted Luciferin Detection Reagent (30 ul) was then added is added to simultaneously stop the MAO reaction and convert the methyl ester derivative to luciferin and produce light. The amount of light produced is directly proportional to the activity of MAO. The mixtures were further incubated for 20 minutes and activity of the enzyme was determined using Perkin-Elmer Envision Reader.
as §1

Experiment [3] concerns the target HMAO-A (Homo sapiens (Human), UniProt P21397). Description: MAO-A assay (luminogenic MAO substrate). Type of experiment: biochemical. The conditions noted are these: microsome MAO-A, 160 uM substrate. The method, then:
as §2, §1

The subject of experiment [4] is male Sprague Dawley (SD) rats. As to the kind of experiment: Rat cocaine cue reinstatement. Type of experiment: in vivo. Here is the method:
Training of male Sprague Dawley (SD) rats had 3 separate stages. First, during self administration, animals were trained to lever press for cocaine with presentation of concomitant cues associated with drug delivery. Rats that reached criteria for addiction were included in the study. Afterward, during cue extinction, cocaine-cue dependent behavior was extinguished. Lastly, during cocaine cue reinstatement, the effect of compounds was tested on lever presses upon cue presentation (FIG. 2).
Rats were trained to self administer i.v. cocaine (0.35 mg/kg/injection) daily (Monday to Friday) in standard operant chambers with retractable levers (Coulbourn Instruments, PA). During the daily 2 hr session, rats received a 0.05 ml infusion of 0.35 mg/kg cocaine every time the active lever was pressed. A cue light and tone turned on for 2 sec together with activation of a pump that delivered the cocaine solution. Rats were required to maintain an infusion rate of ≧20+ per day for at least 10 days before being moved to extinction training.
During extinction sessions lever presses no longer produced cocaine infusion and cue light/tone presentation was absent. Rats received a maximum of 15 extinction sessions.
On the next day after reaching extinction criteria, rats were treated orally with vehicle (Formulation 2B: 25% PEG400/5% Vit E TPGS/1% SLS/69% water with 0.5% Methocel) or drug (compound of Example 2 or compound of Example 5) before the cue reinstatement session. Cue reinstatement began with a tone and cue light. This 2 hr session was identical to the self-administration session (cue light and tone present upon active lever press) except that no cocaine was delivered. The number of active lever presses was compared to extinction lever responding. This is considered a measure of reinstatement. The next day, rats were returned to extinction sessions for at least 2 or 3 more sessions. Rats then received a second and last reinstatement session with an opposite treatment to the one received on the first reinstatement session (vehicle or drug treatment). […] The light/tone presentation triggers this response and it is interpreted as a measure of reinstatement even though cocaine is not available.

In experiment [5] the test system is Male SD rats. As to the kind of experiment: Rat nicotine self administration, acute treatment. Type of experiment: in vivo. The conditions noted are these: 1 hr before session. The method, then: Male SD rats were trained to self administer i.v. nicotine (0.03 mg/kg/inj) daily (Monday to Friday) in standard operant chambers with retractable levers (MED Associates, Inc) as previously published (Levin et al., 2003; Levin et al., 2007). During the daily 45 min session, rats received 0.05 ml infusion of 0.03 mg/kg/infusion of nicotine every time the active lever was pressed. A cue light and tone turned on for 0.5 sec together with the activation of a pump that delivered the nicotine solution. Daily sessions were run for at least 10 days before the initiation of drug testing. Solutions of compounds of Example 2 and Example 5 were prepared fresh daily in Formulation 2B: 25% PEG400/5% Vit E TPGS/1% SLS/69% water with 0.5% Methocel) for oral dosing. Compound of Example 2 doses were administered in a counterbalanced design for testing 1 hr before each nicotine session. Every rat received all drug doses and vehicle in a randomly assigned order. The oral drug administrations were made twice per week.
Compound of Example 5 was tested in a study using 4 independent groups. Each group received either oral vehicle or 1 of the 3 doses of compound of Example 5 (5, 10 or 30 mg-eq/kg). […] The 5 mg/kg dose was ineffective.

Sequence of recombinant human ALDH2 (P05091 18-517): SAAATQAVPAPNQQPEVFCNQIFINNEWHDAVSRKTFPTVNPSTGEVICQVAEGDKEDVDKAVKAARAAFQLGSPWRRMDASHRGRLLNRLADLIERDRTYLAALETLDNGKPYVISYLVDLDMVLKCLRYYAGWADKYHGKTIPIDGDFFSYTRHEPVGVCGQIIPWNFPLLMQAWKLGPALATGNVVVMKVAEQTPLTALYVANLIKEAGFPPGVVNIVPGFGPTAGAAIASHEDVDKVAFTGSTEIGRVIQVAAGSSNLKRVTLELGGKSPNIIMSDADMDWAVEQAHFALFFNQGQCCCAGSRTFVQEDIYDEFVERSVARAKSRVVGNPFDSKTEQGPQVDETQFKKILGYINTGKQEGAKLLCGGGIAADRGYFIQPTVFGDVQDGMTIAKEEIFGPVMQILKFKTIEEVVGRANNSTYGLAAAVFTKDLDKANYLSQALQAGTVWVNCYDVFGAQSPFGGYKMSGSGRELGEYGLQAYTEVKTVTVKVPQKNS
Sequence of HMAO-B (P27338 whole entry): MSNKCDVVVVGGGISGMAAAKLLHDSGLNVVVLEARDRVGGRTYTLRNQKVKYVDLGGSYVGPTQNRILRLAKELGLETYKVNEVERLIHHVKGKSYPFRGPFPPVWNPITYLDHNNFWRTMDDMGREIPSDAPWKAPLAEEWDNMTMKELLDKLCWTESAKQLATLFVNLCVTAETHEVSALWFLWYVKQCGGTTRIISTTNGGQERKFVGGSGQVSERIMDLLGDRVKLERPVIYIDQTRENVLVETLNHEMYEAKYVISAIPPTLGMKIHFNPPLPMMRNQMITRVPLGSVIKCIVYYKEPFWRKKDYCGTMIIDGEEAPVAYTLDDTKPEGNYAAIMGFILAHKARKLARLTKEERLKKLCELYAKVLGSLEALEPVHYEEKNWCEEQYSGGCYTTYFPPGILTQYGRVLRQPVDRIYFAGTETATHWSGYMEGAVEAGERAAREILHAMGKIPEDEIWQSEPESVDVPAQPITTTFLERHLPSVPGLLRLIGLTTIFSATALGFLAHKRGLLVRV
Sequence of HMAO-A (P21397 whole entry): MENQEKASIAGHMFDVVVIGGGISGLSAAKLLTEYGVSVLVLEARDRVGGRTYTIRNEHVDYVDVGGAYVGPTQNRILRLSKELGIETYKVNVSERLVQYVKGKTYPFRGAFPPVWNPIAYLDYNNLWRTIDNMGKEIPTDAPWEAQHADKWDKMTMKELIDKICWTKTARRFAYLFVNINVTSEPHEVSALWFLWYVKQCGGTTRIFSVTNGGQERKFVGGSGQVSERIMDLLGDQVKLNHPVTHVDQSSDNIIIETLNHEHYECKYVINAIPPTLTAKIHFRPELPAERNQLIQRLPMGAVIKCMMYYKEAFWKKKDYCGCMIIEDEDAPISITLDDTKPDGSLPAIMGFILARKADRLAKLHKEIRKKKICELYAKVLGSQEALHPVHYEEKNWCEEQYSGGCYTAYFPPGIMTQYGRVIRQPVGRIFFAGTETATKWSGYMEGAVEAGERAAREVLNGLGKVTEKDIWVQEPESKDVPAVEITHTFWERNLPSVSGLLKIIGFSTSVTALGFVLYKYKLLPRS

As to `COCCOc1cc(Cl)c(C(=O)NCc2ccc(-c3cc[nH]c(=O)c3)cc2)c(Cl)c1` [Compound 1, 2,6-dichloro-4-(2-methoxyethoxy)-N-(4-(2-oxo-1,2-dihydropyridin-4-yl)benzyl)benzamide], the figures for the half-inhibitory concentration (IC50) in experiment [1], in experiment [2] and in experiment [3] were 0.063 µM, more than 130 µM and more than 130 µM, respectively.

As to `O=C(NCc1ccc(-c2cc[nH]c(=O)c2)cc1)c1c(Cl)cccc1Cl` [Compound 2, 2,6-dichloro-N-[4-(2-oxo-1,2-dihydro-pyridin-4-yl)-benzyl]-benzamide], the IC50 is 0.102 µM in experiment [1], more than 130 µM in experiment [2] and more than 130 µM in experiment [3]. Besides, the “reduction of cocaine cue-induced reinstatement (lever presses) compared to vehicle” value was 69% in experiment [4] (5 mg/kg oral), 72% in experiment [4] (10 mg/kg oral) and 86% in experiment [4] (30 mg/kg oral). In addition, the “effect on number of nicotine infusions compared to vehicle” value in experiment [5] (1 mg/kg oral) and in experiment [5] (5 mg/kg oral) was “without effect” throughout. The “inhibition of number of nicotine infusions compared to vehicle” value in experiment [5] (10 mg/kg oral) came out at 26%; in experiment [5] (30 mg/kg oral), 28%; in experiment [5] (60 mg/kg oral), 31%.

`O=C(NCc1ccc(-c2cc[nH]c(=O)c2)cc1)c1cccc(F)c1Cl` [Compound 3, 2-chloro-3-fluoro-N-(4-(2-oxo-1,2-dihydropyridin-4-yl)benzyl)benzamide]: the half-inhibitory concentration (IC50) is 0.215 µM in experiment [1], more than 130 µM in experiment [2] and more than 130 µM in experiment [3].

For the compound `Cc1cccc(Cl)c1C(=O)NCc1ccc(-c2cc[nH]c(=O)c2)cc1` [Compound 4, 2-chloro-6-methyl-N-(4-(2-oxo-1,2-dihydropyridin-4-yl)benzyl)benzamide], the results for the 50% inhibitory concentration (IC50) in experiment [1], in experiment [2] and in experiment [3] were 0.023 µM, more than 130 µM and more than 130 µM, respectively.

On to `Cc1cccc(C)c1C(=O)NCc1ccc(-c2cc[nH]c(=O)c2)cc1` [Compound 5, 2,6-dimethyl-N-(4-(2-oxo-1,2-dihydropyridin-4-yl)benzyl)benzamide], for which the values for the IC50 in experiment [1], in experiment [2] and in experiment [3] were 0.166 µM, more than 130 µM and more than 130 µM, respectively.

Regarding `Cc1cc(-c2ccc(CNC(=O)c3c(Cl)cccc3Cl)cc2)cc(=O)[nH]1` [Compound 6, 2,6-dichloro-N-[4-(6-methyl-2-oxo-1,2-dihydro-pyridin-4-yl)-benzyl]-benzamide], the IC50 in experiment [1] was 1.11 µM; in experiment [2], more than 130 µM; in experiment [3] it was more than 130 µM.

For `O=C(NCc1ccc(-c2cc[nH]c(=O)c2)cc1)c1c(F)ccc(F)c1Cl` [Compound 7, 2-chloro-3,6-difluoro-N-(4-(2-oxo-1,2-dihydropyridin-4-yl)benzyl)benzamide], the IC50 is 0.464 µM in experiment [1], more than 130 µM in experiment [2] and more than 130 µM in experiment [3].

`Cc1cc(CNC(=O)c2c(Cl)cccc2Cl)ccc1-c1cc[nH]c(=O)c1` [Compound 8, 2,6-dichloro-N-(3-methyl-4-(2-oxo-1,2-dihydropyridin-4-yl)benzyl)benzamide]: the figures for the concentration for half-maximal inhibition (IC50) in experiment [1], in experiment [2] and in experiment [3] were 0.48 µM, more than 130 µM and more than 130 µM, respectively.

As to `Cn1ccc(-c2ccc(CNC(=O)c3c(Cl)cccc3Cl)cc2)cc1=O` [Compound 9, 2,6-dichloro-N-(4-(1-methyl-2-oxo-1,2-dihydropyridin-4-yl)benzyl)benzamide], the concentration for half-maximal inhibition (IC50) in experiment [1] is 2.09 µM; in experiment [2] it was more than 130 µM; in experiment [3] it was more than 130 µM.

Consider `O=C(NCc1ccc(-c2cc[nH]c(=O)c2)cc1)c1c(F)cccc1F` [Compound 10, 2,6-difluoro-N-(4-(2-oxo-1,2-dihydropyridin-4-yl)benzyl)benzamide], for which the values for the half-inhibitory concentration (IC50) in experiment [1], in experiment [2] and in experiment [3] were 0.89 µM, more than 130 µM and more than 130 µM, respectively.

`O=C(NCc1ccc(-c2cc[nH]c(=O)c2)cc1)c1c(F)cccc1Cl` [Compound 11, 2-chloro-6-fluoro-N-(4-(2-oxo-1,2-dihydropyridin-4-yl)benzyl)benzamide]: the values for the concentration for half-maximal inhibition (IC50) in experiment [1], in experiment [2] and in experiment [3] were 0.379 µM, more than 130 µM and more than 130 µM, respectively.

In the case of `O=C(NCc1ccc(-c2cc[nH]c(=O)c2)cc1F)c1c(Cl)cccc1Cl` [Compound 12, 2,6-dichloro-N-(2-fluoro-4-(2-oxo-1,2-dihydropyridin-4-yl)benzyl)benzamide], the IC50 in experiment [1] was 0.304 µM; in experiment [2], more than 130 µM; in experiment [3] it was more than 130 µM.

For the compound `O=C(NCc1ccc(-c2cc(=O)[nH]cc2F)cc1)c1c(Cl)cccc1Cl` [Compound 13, 2,6-dichloro-N-(4-(5-fluoro-2-oxo-1,2-dihydropyridin-4-yl)benzyl)benzamide], the 50% inhibitory concentration (IC50) was 0.025 µM in experiment [1], more than 130 µM in experiment [2] and more than 130 µM in experiment [3].

The record behind these values is US9000015B2, “Compounds for the treatment of addiction” (Gilead Sciences, Inc., priority 2011, dated 2015).
